Source: US11603355B2, “Charged ion channel blockers and methods for use” (Nocion Therapeutics, Inc., priority 2019, dated 2023)
Where a name gives a salt, the structure may show the parent alone.

Key:
NaV1.7 [1] = molecular target: T1, NaV1.7 (Homo sapiens, UniProt Q15858); test: Automated patch clamp (Qube 384), internal block of NaV1.7; assay type: cell-based; conditions: IC50, compound in internal solution, HEK293 cells, read-out: Nav1.7 Intracellular Inhibition
T1 construct: expressed in transfected cells; host or cells: HEK293 (tetracycline-inducible)
Procedure: (§1) NaV1.7 was expressed in HEK293 cells upon induction with tetracycline. Cells were cultured in DMEM containing 10% dialyzed Fetal Bovine Serum (VWR, Radnor, Pa.), 1% Glutamax (VWR, Radnor, Pa.), 1% Penicillin-Streptomycin (VWR, Radnor, Pa.), 100 mg/L Hygromycin (Thermo Fisher Scientific, Waltham, Mass. and 5 mg/L Blasticidin (Alfa Aesar, Haverhill, Mass.). Cells were grown and maintained at 37° C. in a humidified environment containing 10% CO2 in air. Cells were detached from the culture flask for passage and harvested using 0.05% Trypsin-EDTA (Thermo Fisher Scientific, Waltham, Mass.). To induce NaV1.7, cells were induced with tetracycline (0.1-1 μg/mL, IBI Scientific, Peosta, Iowa) the day before recording.
(§2) Before experiments, cells were washed with DPBS (VWR, Radnor, Pa.), digested with Detachin (VWR Radnor, Pa.) and then triturated 10 times in CHO Serum-Free Media (VWR Radnor, Pa.) to resuspend the cells and to break apart cell aggregates. Cells were counted and the final concentration was set at 2-5 million cells per mL.
(§3) The intracellular solution contained the following: 140 mM CsF, 1 mM/5 mM EGTA/CsOH, 10 mM HEPES, 10 mM NaCl, adjusted to pH 7.3 with CsOH, and osmolality to 320 with OSM solution. The external solution contained the following: 145 mM NaCl, 4 mM KCl, 1 mM MgCl2, 2 mM CaCl2), 10 mM HEPES, 10 mM Glucose, adjusted to pH 7.4 with CsOH and osmolality to 305 with OSM solution. The OSM solution was a normal Ringer solution containing (in mM) NaCl 155, HEPES 10, sucrose, KCl 3.5, CaCl2) 1.5, MgCl2 1 adjusted to pH 7.4 with NaOH. All chemicals are from Sigma-Aldrich, St. Louis, Mo. In order to test the degree of internal block by test compounds, the compounds were dissolved in internal solution at the indicated test concentration. […] In order to test the degree of external block by test compounds the compounds were dissolved in external solution at the indicated test concentration.
(§4) Automated Patch Clamps were performed on Qube 384 (Sophion Bioscience, Woburn Mass.) with multihole Qchips at a temperature setting of 22 degrees. The whole cells configuration was formed with default Qube seal and break-in parameter. The membrane potential was held at −100 mV before the voltage protocol began. Two voltage protocols were followed.
(§5) Step 1: Cells were held at −100 mV with a depolarized pulse to −20 mV for 10 ms, the interval was set at 5 s. Currents were corrected by default leak subtraction from every pulse. The duration was set at 5 mins.
(§6) Step 2: Cells were held at −100 mV with a depolarized pulse to −20 mV for 10 ms. The frequency was 5 Hz. Currents were corrected by leak subtraction calculated before step 2. The duration was set at 4 mins.
After Step 2, the Qchip was removed from the recording chamber. The internal solution was changed with solutions containing test compounds. Qchips were held at −100 mV without pulsing after being replaced in the recording chamber. The total solution switching time was 8 minutes. After the internal solution exchange, Cells were recorded and step 2 for repeated for 10 minutes.
Data analysis was performed by Sophion Analyzer. Cells were filtered with minimum 50 MOhm seal resistance and minimum 5 nA starting current. The rundown of the currents was corrected with control cells (Non-Drug). The remaining was calculated by averaging last 3 points in the end of experiments. The base line was calculated as the average of last 3 points of Step 2.
IC50 curves were plotted with DR-plots/Hill function (a dose-response plot with a Hill fit).
Representative examples of the invention were tested for intracellular inhibition of NaV 1.7 in the automated patch clamp assay. Activity Range is reported as IC50: “++++” (<0.3 μM), “+++” (0.3-1 μM), “++” (1-3 μM) or “+” (3-10 μM).

[2] = PAMPA membrane permeability assay; assay type: in vitro ADME; conditions: permeability coefficient, pH 7.4 buffer, GIT lipid, 4 hours incubation
Procedure: The PAMPA assay (pION, Inc., Woburn Mass.) was used to determine the ability of compounds of the invention to cross an artificial lipid membrane by passive diffusion. Test compounds were dissolved in DMSO (10 mM) and diluted 200-fold in buffer (pION Inc., pH 7.4) to provide 50 uM stock solutions. Buffer (150 μL) was added to a UV blank plate and stock solutions (150 μL) were transferred to a UV reference plate. The blank and reference spectrum were read using a spectrophotometer. Stock solutions (200 μL) were added to the donor plate of the PAMPA sandwich plate and an accept plate painted with GIT lipid (pION Inc, 5) was placed on top. Buffer (200 μL) was added to the acceptor plate and the PAMPA sandwich plate was incubated for 4 hours. Aliquots (150 μL) from the acceptor plate were added to a UV plate and read as acceptor spectrum. Aliquots (150 μL) of the donor solutions were added to a UV analysis plate and read as donor spectrum. The permeability coefficient of test compounds was calculated using PAMPA Explorer™ software (version 3.5.0.4) based on the AUC of the reference plate, the donor plate, and the acceptor plate.
The PAMPA permeability results (10^−6 cm/s) of representative compounds are reported as “+” (<0.1 10^−6 cm/s), “++” (0.1-2.0 10^−6 cm/s), “+++” (2.0-10.010^−6 cm/s) or “++++” (>10.0 10^−6 cm/s).

NaV1.7 [3] = molecular target: T1, NaV1.7; test: Manual patch clamp, internal block of NaV1.7 current; assay type: cell-based; conditions: compound in internal solution, HEK293 cells, read-out: Nav1.7 Intracellular Inhibition; for inhibition at 3 µM: % inhibition at 3 μM test concentration
Procedure: Representative compounds of the invention were synthesized according to the described methods and tested for the ability to inhibit voltage-gated sodium channels.
as §1, with “recording and plated onto 24-well plates. Cells were washed with DPBS (VWR, Radnor, Pa.), trypsinized and then triturated five times in 10 mL of growth media to break apart cell aggregates. For one 24-well plate, 2 mL of cell suspension was mixed with 23 mL of fresh growth media and 0.1-1 μg/mL tetracycline added. 1 ml of mixed media with cells was then added to each well of a 24-well plate, with a 12 mm coverslip already placed in the bottom of the well. Cells were then incubated in 37° C. and 10% CO2 overnight.” for “recording.”
The intracellular solution contained the following (in mM) CsCl 135, NaCl 10, EGTA 10, HEPES 10, MgCl2 2, adjusted to pH 7.2 with CsOH. The external solution was a normal Ringer solution containing (in mM) NaCl 155, HEPES 10, glucose 10, KCl 3.5, CaCl2 1.5, MgCl2 1 adjusted to pH 7.4 with NaOH. CsCl is from Alfa Aesar, Haverhill, Mass. All other chemicals are from Sigma-Aldrich, St. Louis, Mo. In order to test the degree of internal block by test compounds the compounds were dissolved in internal solution at the indicated test concentration. […] In order to test the degree of external block by test compounds the compounds were dissolved in external solution at the indicated test concentration.
18-24 hours after cells were induced with tetracycline, coverslips were placed into a chamber filled with Normal Ringer solution at room temperature and the chamber placed on a microscope. Pipettes were pulled from borosilicate glass on a P97 puller (Sutter Instrument, Novato, Calif.) and polished with a MF-830 Microforge (Narishige International USA, Inc., Amityville, N.Y.) to have a resistance of 1.5-2.5 MΩ when filled with CsCl internal solution at room temperature. Healthy cells (those that are round and translucent with no visible blemishes) were chosen for seal formation. A seal was formed between the pipette and the cell, and a brief pulse of suction was used to “break in” and establish the whole-cell configuration. The membrane potential was held at −100 mV before the voltage protocol began. Only cells with series resistance between 1.5-5 MΩ were retained for analysis. The voltage protocol was as follows: Cells were held at −100 mV for 12 ms followed by a hyperpolarizing step to −105 mV for 12 ms to monitor the leak. Cells were then stepped back to −100 mV for 40 ms. Cells were then depolarized to −20 mV for 10 ms and then returned to −100 mV for 26 ms.
Once the recording was started, the voltage protocol was run at 30 second intervals for 5 minutes to get a stable baseline. This was followed by four 30-second periods of 5 Hz stimulation of the same voltage protocol separated by 1 minute of rest which was then followed by 0.33 Hz stimulation after the last train. Currents were recorded using PatchMaster software with Heka EPC10 (HEKA Electronics, Lambrecht, Germany). Only cells with inward current amplitudes at −20 mV between 400 pA and 4 nA were accepted. In addition, cells having leak currents greater than 10% of their current amplitudes were discarded. […]

NaV1.7 [4] = molecular target: T1, NaV1.7; test: Automated patch clamp (Qube 384), external block of NaV1.7; assay type: cell-based; conditions: IC50, compound in external solution, HEK293 cells, read-out: Nav1.7 Extracellular Inhibition
Procedure: as §1, §2, §3, §4, §5, §6
After Step 2, the external solution was changed with solutions containing test compounds. Qchips were held at −100 mV without pulsing. The total solution switching time was 8 minutes. After the external solution exchange, cells were recorded using the same procedure as step 2 for 10 minutes.
Data analysis was performed by Sophion Analyzer. Data were corrected with control cells (Non-Drug). The IC50 data were plotted with DR-plots/Hill function (a dose-response plot with a Hill fit). Representative examples of the invention were tested for extracellular inhibition of NaV 1.7 in the automated patch clamp assay. Activity Range is reported as IC50: “++++” ([…], “+++” (1-3 μM), “++” ([…]) or “+” (>10 μM). The results are presented below.

T1 sequence (Q15858 whole entry): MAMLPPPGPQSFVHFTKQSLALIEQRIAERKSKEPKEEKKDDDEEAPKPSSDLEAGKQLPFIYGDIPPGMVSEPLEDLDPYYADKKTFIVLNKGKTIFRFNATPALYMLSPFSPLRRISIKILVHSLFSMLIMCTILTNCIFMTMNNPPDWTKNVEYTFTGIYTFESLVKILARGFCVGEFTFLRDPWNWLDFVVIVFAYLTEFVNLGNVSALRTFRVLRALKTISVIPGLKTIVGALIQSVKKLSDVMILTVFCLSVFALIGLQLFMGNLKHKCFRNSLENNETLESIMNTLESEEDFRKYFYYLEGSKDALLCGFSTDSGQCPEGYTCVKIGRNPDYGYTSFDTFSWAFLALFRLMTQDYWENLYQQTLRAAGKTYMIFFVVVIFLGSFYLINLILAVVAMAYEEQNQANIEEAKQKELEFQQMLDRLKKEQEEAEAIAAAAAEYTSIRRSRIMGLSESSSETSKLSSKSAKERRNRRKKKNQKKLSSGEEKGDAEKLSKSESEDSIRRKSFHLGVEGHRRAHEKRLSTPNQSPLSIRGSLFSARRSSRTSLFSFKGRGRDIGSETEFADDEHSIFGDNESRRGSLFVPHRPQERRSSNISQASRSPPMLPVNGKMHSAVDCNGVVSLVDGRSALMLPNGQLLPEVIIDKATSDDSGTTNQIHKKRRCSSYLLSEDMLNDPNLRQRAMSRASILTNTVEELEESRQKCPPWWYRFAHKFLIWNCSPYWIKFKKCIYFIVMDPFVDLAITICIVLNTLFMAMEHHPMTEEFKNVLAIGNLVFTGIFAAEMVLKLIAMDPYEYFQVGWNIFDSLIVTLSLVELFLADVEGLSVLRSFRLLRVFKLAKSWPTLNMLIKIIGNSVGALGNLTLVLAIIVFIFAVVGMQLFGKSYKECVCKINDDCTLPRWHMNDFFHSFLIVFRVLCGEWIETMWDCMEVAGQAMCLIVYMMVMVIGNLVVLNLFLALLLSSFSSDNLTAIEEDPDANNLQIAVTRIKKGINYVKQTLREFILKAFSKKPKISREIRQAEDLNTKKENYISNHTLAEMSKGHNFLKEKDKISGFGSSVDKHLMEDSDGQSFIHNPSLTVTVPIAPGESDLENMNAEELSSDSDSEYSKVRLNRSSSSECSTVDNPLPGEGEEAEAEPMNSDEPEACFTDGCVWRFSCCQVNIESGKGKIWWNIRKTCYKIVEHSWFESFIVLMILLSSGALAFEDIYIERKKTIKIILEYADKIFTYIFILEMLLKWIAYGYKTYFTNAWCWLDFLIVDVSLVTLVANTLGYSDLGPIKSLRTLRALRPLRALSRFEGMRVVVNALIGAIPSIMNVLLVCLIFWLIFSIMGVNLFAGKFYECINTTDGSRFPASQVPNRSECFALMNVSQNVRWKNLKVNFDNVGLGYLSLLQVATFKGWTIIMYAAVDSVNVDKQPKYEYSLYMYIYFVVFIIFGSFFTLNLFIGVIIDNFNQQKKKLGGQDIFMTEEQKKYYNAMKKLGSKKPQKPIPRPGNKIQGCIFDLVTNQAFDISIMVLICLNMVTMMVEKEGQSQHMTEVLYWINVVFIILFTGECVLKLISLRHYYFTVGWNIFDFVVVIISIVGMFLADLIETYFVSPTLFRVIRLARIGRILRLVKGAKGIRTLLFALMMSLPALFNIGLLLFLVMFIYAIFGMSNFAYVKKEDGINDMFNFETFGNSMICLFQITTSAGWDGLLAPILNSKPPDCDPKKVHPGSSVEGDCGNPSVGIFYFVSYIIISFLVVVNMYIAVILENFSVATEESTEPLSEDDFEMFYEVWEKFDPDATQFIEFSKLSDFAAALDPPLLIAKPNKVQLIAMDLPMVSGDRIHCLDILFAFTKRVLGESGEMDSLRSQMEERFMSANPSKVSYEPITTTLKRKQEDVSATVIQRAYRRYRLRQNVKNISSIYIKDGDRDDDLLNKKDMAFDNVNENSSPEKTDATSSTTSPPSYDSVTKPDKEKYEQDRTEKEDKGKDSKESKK

## Cc1cccc(C)c1NC(=O)C[N+]1(Cc2ccccc2)CCCCCC1 [Compound 3]
NaV1.7 [1]
  IC50: 300 to 1000 nM

## Cc1cccc(C)c1NCC[N+]1(Cc2ccccc2)CCCCCC1 [Compound 84A, 1-benzyl-1-(2-((2,6-dimethylphenyl)amino)ethyl) azepan-1-ium trifluoroacetate]
[2]
  PAMPA (10^−6 cm/s): + (“+” (<0.1 10^−6 cm/s))
NaV1.7 [1]
  IC50: 3000 to 10000 nM

## Cc1cccc(C)c1NC(=O)C[N+]1(Cc2ccccc2)CCCC(C(=O)OC2CCCC2)C1.[Br-] (centres unmarked) [Compound 50A]
[2]
  PAMPA (10^−6 cm/s): + (“+” (<0.1 10^−6 cm/s))
NaV1.7 [1]
  IC50: 1000 to 3000 nM

## Cc1cccc(C)c1NC(=O)C[N+]1(Cc2ccccc2)CCCC(C(=O)OCC(C)C)C1.[Br-] (centres unmarked) [Compound 48A]
[2]
  PAMPA (10^−6 cm/s): + (“+” (<0.1 10^−6 cm/s))
NaV1.7 [1]
  IC50: 1000 to 3000 nM

## Cc1cccc(O)c1NC(=O)C[N+]1(Cc2ccccc2)CCCCCC1.[Br-] [Compound 79A, 1-benzyl-1-(2-((2-hydroxy-6-methylphenyl)amino)-2-oxoethyl) azepan-1-ium formate]
[2]
  PAMPA (10^−6 cm/s): + (“+” (<0.1 10^−6 cm/s))
NaV1.7 [1]
  IC50: 1000 to 3000 nM

## CCC(C(=O)Nc1c(C)cccc1C)[N+]1(Cc2cccc(Cl)c2)CCCCC1 (centres unmarked) [Compound 11]
NaV1.7 [1]
  IC50: 300 to 1000 nM

## CCCN(CCC)C(=O)C1CCC[N+](CC(=O)Nc2c(C)cccc2C)(Cc2ccccc2)C1 (centres unmarked) [Compound 67A]
NaV1.7 [1]
  IC50: 1000 to 3000 nM

## Cc1cccc(C(=O)N(C)C)c1NC(=O)C[N+]1(Cc2ccccc2)CCCCCC1.[Br-] [Compound 78A]
[2]
  PAMPA (10^−6 cm/s): + (“+” (<0.1 10^−6 cm/s))
NaV1.7 [1]
  IC50: 3000 to 10000 nM

## Cc1cccc(C)c1NC(=O)C[N+]1(Cc2ccccc2)CCCC(C(=O)NC2CCCC2)C1.[Br-] (centres unmarked) [Compound 60A]
[2]
  PAMPA (10^−6 cm/s): + (“+” (<0.1 10^−6 cm/s))
NaV1.7 [1]
  IC50: 1000 to 3000 nM

## CCC(C(=O)Nc1c(C)cccc1C)[N+]1(Cc2cccc(OC)c2)CCCCC1 (centres unmarked) [Compound 23]
NaV1.7 [1]
  IC50: 300 to 1000 nM

## Cc1cccc(C(F)(F)F)c1NC(=O)C[N+]1(Cc2ccccc2)CCCCCC1 [Compound 73A]
NaV1.7 [3]
  inhibition at 3 µM: > 90%
NaV1.7 [1]
  IC50: 300 to 1000 nM

## Cc1cccc(C)c1N1CCCC([N+]2(Cc3ccccc3)CCCCC2)C1=O (centres unmarked) [Compound 92A]
NaV1.7 [4]
  IC50: > 10 µM
NaV1.7 [1]
  IC50: 1000 to 3000 nM

## CCC(C(=O)Nc1c(C)cccc1C)[N+]1(Cc2cccc(C#N)c2)CCCCC1 (centres unmarked) [Compound 14]
NaV1.7 [1]
  IC50: 300 to 1000 nM

## CCC(C(=O)Nc1c(C)cccc1C)[N+]1(Cc2cccc(O)c2)CCCCC1 (centres unmarked) [Compound 29]
NaV1.7 [1]
  IC50: < 300 nM

## CCC(C(=O)Nc1c(C)cccc1C)[N+]1(Cc2ccccc2)CCCCCC1 (centres unmarked) [Compound 30]
NaV1.7 [1]
  IC50: < 300 nM

## Cc1cccc(C)c1OCC[N+]1(Cc2ccccc2)CCCCCC1 [Compound 85A, 1-benzyl-1-(2-(2,6-dimethylphenoxy)ethyl) azepan-1-ium bromide]
NaV1.7 [3]
  inhibition at 3 µM: > 90%
NaV1.7 [3]; % inhibition at 10 μM test concentration
  inhibition at 10 µM: > 95%
NaV1.7 [1]
  IC50: 1000 to 3000 nM

## CCc1cccc(C[N+]2(C(CC)C(=O)Nc3c(C)cccc3C)CCCCC2)c1 (centres unmarked) [Compound 20]
NaV1.7 [1]
  IC50: 1000 to 3000 nM

## Cc1cccc(C)c1NC(=O)C[N+]1(Cc2ccccc2)CCCC(C(=O)NC2CCCCC2)C1.[Br-] (centres unmarked) [Compound 61A]
[2]
  PAMPA (10^−6 cm/s): + (“+” (<0.1 10^−6 cm/s))
NaV1.7 [1]
  IC50: 3000 to 10000 nM
